Our source for the IC50 values is BindingDB's records for doi:10.7270/Q2W957N3 (Burnham Center For Chemical Genomics, 2010).

The structures appear in SMILES notation.

The target of this assay is Alkaline phosphatase, placental type (Homo sapiens, UniProt P05187). Put plainly: inhibition of placental alkaline phosphatase – biochemical, uHTS hits, luminescence, selectivity assay for human IAP inhibitor project, dose response (AID 488892).
Chain of Alkaline phosphatase, placental type (P05187 whole entry, looked up): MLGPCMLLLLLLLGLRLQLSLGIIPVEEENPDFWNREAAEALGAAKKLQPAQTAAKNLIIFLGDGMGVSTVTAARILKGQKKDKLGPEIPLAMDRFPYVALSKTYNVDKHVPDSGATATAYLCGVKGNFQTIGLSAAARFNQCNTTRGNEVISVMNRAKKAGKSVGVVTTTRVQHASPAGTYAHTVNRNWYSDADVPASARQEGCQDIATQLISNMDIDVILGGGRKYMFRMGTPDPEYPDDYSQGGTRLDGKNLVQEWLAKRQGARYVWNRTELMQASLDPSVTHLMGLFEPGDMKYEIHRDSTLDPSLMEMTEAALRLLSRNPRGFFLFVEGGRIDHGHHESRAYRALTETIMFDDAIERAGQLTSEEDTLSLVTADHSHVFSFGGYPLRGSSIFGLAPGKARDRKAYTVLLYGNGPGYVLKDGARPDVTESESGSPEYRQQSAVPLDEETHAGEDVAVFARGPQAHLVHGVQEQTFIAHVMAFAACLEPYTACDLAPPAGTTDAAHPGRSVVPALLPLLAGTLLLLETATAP
As a reminder, the IC50 is the concentration that inhibits the measured activity by half. `CC(N=Nc1ccccc1[N+](=O)[O-])c1ccc([N+](=O)[O-])cc1` (stereo not drawn) showed an IC50 of more than 100 µM.
The compound `CCOC1=CC(=Cc2c(C)[nH]oc2=O)C=C(Br)C1=O` [4-[(Z)-(3-bromo-5-ethoxy-4-oxo-1-cyclohexa-2,5-dienylidene)methyl]-3-methyl-2H-isoxazol-5-one] showed an IC50 of 35.1 µM.
`C=c1[nH]n(Cc2ccccc2)c(=O)c1=Cc1ccc(N(C)C)cc1` [(4Z)-4-[[4-(dimethylamino)phenyl]methylidene]-5-methyl-2-(phenylmethyl)-3-pyrazolone] yielded an IC50 of 37.8 µM.
